What was measured:
[1] = molecular target: T1, Aldehyde dehydrogenase, mitochondrial (Homo sapiens) (UniProt P05091); assay: Inhibition of full length recombinant human ALDH2 expressed in Escherichia coli assessed as remaining dehydrogenase activity by measuring NAD(P)H level at 10 uM preincubated for 2 mins followed by addition of propionaldehyde as substrate in presence of NAD+ by spectrophotometric method
T1 sequence (whole entry): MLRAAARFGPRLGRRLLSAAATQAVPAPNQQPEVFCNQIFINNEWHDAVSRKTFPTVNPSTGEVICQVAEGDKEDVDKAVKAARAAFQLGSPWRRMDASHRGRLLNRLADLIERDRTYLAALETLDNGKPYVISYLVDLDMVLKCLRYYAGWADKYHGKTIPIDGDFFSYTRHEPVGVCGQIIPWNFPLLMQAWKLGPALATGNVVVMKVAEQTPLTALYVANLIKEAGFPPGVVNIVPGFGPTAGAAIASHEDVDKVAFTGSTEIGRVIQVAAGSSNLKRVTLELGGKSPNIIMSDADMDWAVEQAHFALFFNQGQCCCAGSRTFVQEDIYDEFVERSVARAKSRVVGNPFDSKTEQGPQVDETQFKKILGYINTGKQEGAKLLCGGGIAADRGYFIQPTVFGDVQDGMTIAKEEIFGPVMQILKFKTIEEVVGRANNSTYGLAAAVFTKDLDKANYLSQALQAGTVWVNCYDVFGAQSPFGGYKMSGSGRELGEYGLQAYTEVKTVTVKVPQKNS

[2] = molecular target: T2, Aldehyde dehydrogenase, dimeric NADP-preferring (Homo sapiens) (UniProt P30838); assay: Inhibition of full length recombinant human ALDH3A1 expressed in Escherichia coli BL21(DE3) assessed as remaining dehydrogenase activity by measuring NAD(P)H level at 10 uM preincubated for 2 mins followed by addition of propionaldehyde as substrate in presence of NAD+ by spectrophotometric method
T2 sequence (whole entry): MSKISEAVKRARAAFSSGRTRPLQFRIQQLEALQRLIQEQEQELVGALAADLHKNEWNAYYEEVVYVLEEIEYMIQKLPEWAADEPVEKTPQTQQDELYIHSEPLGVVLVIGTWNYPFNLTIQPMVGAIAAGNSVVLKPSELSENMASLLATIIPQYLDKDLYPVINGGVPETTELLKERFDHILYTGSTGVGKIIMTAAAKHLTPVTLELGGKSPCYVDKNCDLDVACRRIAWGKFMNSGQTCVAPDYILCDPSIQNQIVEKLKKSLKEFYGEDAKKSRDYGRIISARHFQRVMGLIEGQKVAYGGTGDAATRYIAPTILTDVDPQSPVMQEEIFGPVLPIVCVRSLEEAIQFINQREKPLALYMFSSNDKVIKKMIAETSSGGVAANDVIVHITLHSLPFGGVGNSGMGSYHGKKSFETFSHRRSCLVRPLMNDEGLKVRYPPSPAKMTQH

[3] = Lipophilicity, log P of the compound; format: physicochemical; settings: octanol/water
[4] = molecular target: T3, Aldehyde dehydrogenase, mitochondrial (Homo sapiens, UniProt P05091)
T3 sequence (P05091 whole entry): T1 sequence (whole entry)
Description: Inhibition of full length recombinant human ALDH2 expressed in Escherichia coli assessed as reduction in dehydrogenase activity by measuring NAD(P)H level preincubated for 2 mins followed by addition of propionaldehyde as substrate in presence of NAD+ by spectrophotometric method

[5] = molecular target: T4, Aldehyde dehydrogenase, dimeric NADP-preferring (Homo sapiens, UniProt P30838); assay: Inhibition of full length recombinant human ALDH3A1 expressed in Escherichia coli BL21(DE3) assessed as reduction in dehydrogenase activity by measuring NAD(P)H level preincubated for 2 mins followed by addition of benzaldehyde as substrate in presence of NADP+ by spectrophotometric method
T4 sequence (P30838 whole entry): T2 sequence (whole entry)

[6] = molecular target: T5, Aldehyde dehydrogenase X, mitochondrial (Homo sapiens, UniProt P30837)
T5 sequence (P30837 whole entry): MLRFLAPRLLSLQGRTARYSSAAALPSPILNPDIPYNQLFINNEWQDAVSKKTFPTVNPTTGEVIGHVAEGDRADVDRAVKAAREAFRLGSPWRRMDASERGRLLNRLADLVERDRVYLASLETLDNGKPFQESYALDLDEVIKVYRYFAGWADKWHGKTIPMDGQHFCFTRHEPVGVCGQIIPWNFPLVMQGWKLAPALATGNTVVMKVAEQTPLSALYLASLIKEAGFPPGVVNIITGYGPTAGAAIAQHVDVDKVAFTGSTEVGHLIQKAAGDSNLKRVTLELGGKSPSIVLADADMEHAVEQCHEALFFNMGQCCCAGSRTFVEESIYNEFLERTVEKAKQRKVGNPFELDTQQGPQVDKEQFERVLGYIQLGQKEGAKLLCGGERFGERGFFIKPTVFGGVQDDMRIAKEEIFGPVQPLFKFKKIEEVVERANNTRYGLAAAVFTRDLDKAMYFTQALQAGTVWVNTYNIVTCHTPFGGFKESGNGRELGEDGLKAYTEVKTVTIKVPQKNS
Description: Inhibition of full length recombinant human ALDH1B1 expressed in Escherichia coli TunerDE3 assessed as reduction in dehydrogenase activity by measuring NAD(P)H level preincubated for 2 mins followed by addition of propionaldehyde as substrate in presence of NAD+ by spectrophotometric method

Retinal dehydrogenase 2 = molecular target: T6, Retinal dehydrogenase 2 (Homo sapiens, UniProt O94788)
T6 sequence (O94788 whole entry): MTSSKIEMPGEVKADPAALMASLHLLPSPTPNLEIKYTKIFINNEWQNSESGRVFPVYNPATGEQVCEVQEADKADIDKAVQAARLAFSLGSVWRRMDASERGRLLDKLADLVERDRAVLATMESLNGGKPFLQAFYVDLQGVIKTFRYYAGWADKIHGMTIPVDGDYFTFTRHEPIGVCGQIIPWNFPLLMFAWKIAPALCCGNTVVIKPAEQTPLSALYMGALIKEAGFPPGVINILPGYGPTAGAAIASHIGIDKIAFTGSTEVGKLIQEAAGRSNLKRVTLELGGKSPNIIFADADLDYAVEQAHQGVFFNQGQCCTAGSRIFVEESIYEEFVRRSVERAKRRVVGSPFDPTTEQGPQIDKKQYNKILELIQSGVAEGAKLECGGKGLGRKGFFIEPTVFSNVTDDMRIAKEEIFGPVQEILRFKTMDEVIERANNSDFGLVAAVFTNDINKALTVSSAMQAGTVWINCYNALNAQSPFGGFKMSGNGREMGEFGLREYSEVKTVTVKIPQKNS
Description: Inhibition of full length recombinant human ALDH1A2 expressed in Escherichia coli BL21(DE3) assessed as reduction in dehydrogenase activity by measuring NAD(P)H level preincubated for 2 mins followed by addition of propionaldehyde as substrate in presence of NAD+ by spectrophotometric method

C/C(=N\O)c1cc2cc(Br)ccc2oc1=O
Activity [1]: 48.2%
Activity [2]: 91.7%
logP [3]: 2.1
IC50 [4]: 4600 nM
IC50 [5]: Not Active

Cc1oc2cc3oc(=O)c4c(c3cc2c1C)CCC4
Activity [1]: 8.25%
Activity [2]: 87.1%
logP [3]: 4.26
IC50 [6]: 160 nM
IC50 (Retinal dehydrogenase 2): 130 nM
IC50 [4]: 67 nM
IC50 [5]: Not Active

Cc1oc2cc3oc(=O)c(CCC(=O)N4CCCCC4)c(C)c3cc2c1C
Activity [1]: 3.8%
Activity [2]: 105%
logP [3]: 4.06
IC50 [6]: 2600 nM
IC50 (Retinal dehydrogenase 2): 1600 nM
IC50 [4]: 2000 nM
IC50 [5]: Not Active

CCCc1c(C)c2cc3c(C)c(C)oc3cc2oc1=O
Activity [1]: 1.61%
Activity [2]: 86.3%
logP [3]: 4.92
IC50 [6]: 360 nM
IC50 (Retinal dehydrogenase 2): 300 nM
IC50 [4]: 110 nM
IC50 [5]: Not Active

COC(=O)C(C)Oc1ccc2c(C)cc(=O)oc2c1 (stereo not given)
Activity [1]: 5.72%
logP [3]: 1.9
IC50 [4]: 1500 nM
IC50 [5]: Not Active

Cc1oc2cc3oc(=O)c(C)c(C)c3cc2c1C
Activity [1]: 19.5%
Activity [2]: 95.3%
logP [3]: 4.39
IC50 [6]: 310 nM
IC50 (Retinal dehydrogenase 2): 330 nM
IC50 [5]: Not Active

CCCc1cc(=O)oc2cc3oc(C)c(C)c3cc12
Activity [1]: 23.8%
Activity [2]: 80.4%
logP [3]: 4.47
IC50 [6]: 86 nM
IC50 (Retinal dehydrogenase 2): 69 nM
IC50 [4]: 360 nM
IC50 [5]: Not Active

CCCc1c(C)c2cc3c(C)coc3cc2oc1=O
Activity [1]: 6.25%
Activity [2]: 96.1%
logP [3]: 4.47
IC50 [6]: 880 nM
IC50 (Retinal dehydrogenase 2): 760 nM
IC50 [4]: 340 nM
IC50 [5]: Not Active

From ChEMBL document CHEMBL4007427, “Inhibition of the Aldehyde Dehydrogenase 1/2 Family by Psoralen and Coumarin Derivatives” (J Med Chem, 2017)
